≈ marks a conversion by molar mass, not a printed value. Where two headings read alike, the source gives them in different places.
Key:
[1] = Aqueous solubility assay in Normal Ringer Solution; conditions: Normal Ringer Solution, saline or isotonic, kinetic from dmso stock
Experimental: Following vortex and incubation for a sufficient time (e.g. 40 minutes at room temperature), solutions were filtered, quenched with acetonitrile, and analyzed by Liquid Chromotography. Solubility Limits were determined by comparison to a standard curve.

[2] = molecular target: T1, hTRPV3 (Homo sapiens (Human), UniProt Q8NET8); assay: Whole-cell patch clamp, hTRPV3 Phase 1 / Phase 2 currents; format: cell-based
In short: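 Currents are activated by 20 μM 2-APB or by perfusate at 28 °C or warmer, in Ringer's solution, and quantified at ±80 mV.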

[3] = molecular target: human hERG channels (Homo sapiens (Human), UniProt Q12809); assay: hERG assay (patch clamp, CHO cells); format: cell-based
Experimental: hERG assay: Briefly, cells from a stable CHO cell line expressing human hERG channels were plated onto glass coverslips and used in patch clamp assays on the same day. After seal formation and break-in to whole-cell configuration, voltage steps were applied as follows: from the holding potential of −90 mV, a 2 second long step to +40 mV was applied, followed by a 1.5 second step to −50 mV. These steps were applied once every 5 seconds. The hERG current was measured at the peak of the outward tail current at −50 mV. The pipette solution was potassium aspartate based and the external solution was normal Ringer's.
All currents were recorded in whole-cell configuration using an Axopatch 200B controlled by pClamp 10 software (Molecular Devices). In each cell, when the current stabilized, the compound was perfused locally onto the cell. Two to three concentrations of the test compound were applied to each cell. At the end of compound testing, 10 μM verapamil was applied to completely block hERG currents and assess leak current.
Data were analyzed by computing the degree of current block after compound addition compared with the unblocked current amplitude. The unblocked current was predicted from the interpolation between the current amplitude prior to compound addition and after compound washout. The resulting percent block at each concentration was used to make a concentration-response plot and fitted to the Hill equation: percent block=minimum block+(maximum block-minimum block)/(1+10^(Hill slope*(log IC50−concentration))).

[4] = Metabolic Stability assay, rat liver microsomes; format: in vitro ADME; conditions: read-out: LM T1/2 (min) rat
In short: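 Reactions in human or rat liver microsomes at 37 °C were started with an NADPH-regenerating system, using 1 μM compound initially. Samples were taken at 0, 7, 15, 30 and 60 min, quenched in ice-cold acetonitrile/MeOH/H2O, and quantified by HPLC/MS/MS.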

[5] = molecular target: T1, hTRPV3; assay: hTRPV3 HAMA IC50 assay (Hamamatsu FDSS6000 calcium flux, TRex-293 cells); conditions: read-out: hTRPV3 HAMA IC50; 2-APB stimulated calcium flux
Experimental: IC50s were calculated using CBIS from ChemInnovation (San Diego).

[6] = molecular target: T1, hTRPV3; assay: FLIPR Assay (calcium flux, HEK293 cells stably expressing TRPV3); format: cell-based
Experimental: In Tables 3 and 4, Phase 1 refers to Phase 1 current for human (h) TRPV3 or rat (r) TRPV3, and Phase 2 refers to Phase 2 current for human (h) TRPV3 or rat (r) TRPV3. The hTRPV3 and rTRPV3 assays were performed as described herein. hERG refers to the inhibition the human ERG (hERG) channel. NaV1.5, refers to the pore forming aL-subunit of the voltage-dependent cardiac Na(+) channel and is an integral membrane protein involved in the initiation and conduction of action potentials. hTRPV3 HAMA IC50 refers to the IC50 of TRPV3 cells stably expressed in TRex-293 cells. Solubility Ringer refers to the compounds' solubility in Ringer's solution. LM T1/2 refers to liver microsome half-lives in either rat or human liver microsomes. FLIPR IC50 refers to the IC50 of the test compounds against recombinant hTRPV3 cells.
The cells were treated with IBSS and 20 mM HEPES adjusted to pH 7.4 in the presence of the fluorescent calcium indicator e.g. Fluo-4AM (5 uM) and the plates were incubated at 37° C. and […] for approximately 1 hour and cooled to room temperature. […] Relative Fluorescence Units (RFU) were measured for each response for signal maximum minus minimum during approximately 90 seconds after addition.

[7] = Phase 1 current, human TRPV3, read-out: hTRPV3 (nM) Phase 1
[8] = Phase 1 current, inward, whole-cell patch clamp, read-out: hTRPV3 Patch P1 Inwd

T1 sequence (Q8NET8 whole entry): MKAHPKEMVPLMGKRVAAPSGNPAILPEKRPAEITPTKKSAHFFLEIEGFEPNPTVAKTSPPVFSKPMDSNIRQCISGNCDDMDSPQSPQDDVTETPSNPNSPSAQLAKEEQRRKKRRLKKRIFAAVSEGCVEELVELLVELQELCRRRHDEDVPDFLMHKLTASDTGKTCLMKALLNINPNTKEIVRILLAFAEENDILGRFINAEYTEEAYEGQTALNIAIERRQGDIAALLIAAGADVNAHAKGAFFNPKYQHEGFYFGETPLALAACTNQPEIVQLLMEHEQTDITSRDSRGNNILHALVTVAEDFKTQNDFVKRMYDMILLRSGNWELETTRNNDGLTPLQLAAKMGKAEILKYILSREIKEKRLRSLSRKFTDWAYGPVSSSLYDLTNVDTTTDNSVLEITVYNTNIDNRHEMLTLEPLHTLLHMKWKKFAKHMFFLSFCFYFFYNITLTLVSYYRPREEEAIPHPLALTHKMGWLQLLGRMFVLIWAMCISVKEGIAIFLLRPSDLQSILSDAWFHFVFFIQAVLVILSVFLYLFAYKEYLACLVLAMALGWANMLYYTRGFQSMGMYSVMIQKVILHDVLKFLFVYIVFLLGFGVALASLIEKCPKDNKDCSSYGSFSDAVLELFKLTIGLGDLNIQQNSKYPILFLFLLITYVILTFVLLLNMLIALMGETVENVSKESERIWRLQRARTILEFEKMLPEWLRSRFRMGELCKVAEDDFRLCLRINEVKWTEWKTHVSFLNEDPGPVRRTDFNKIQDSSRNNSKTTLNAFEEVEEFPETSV
human hERG channels, sequence (Q12809 whole entry): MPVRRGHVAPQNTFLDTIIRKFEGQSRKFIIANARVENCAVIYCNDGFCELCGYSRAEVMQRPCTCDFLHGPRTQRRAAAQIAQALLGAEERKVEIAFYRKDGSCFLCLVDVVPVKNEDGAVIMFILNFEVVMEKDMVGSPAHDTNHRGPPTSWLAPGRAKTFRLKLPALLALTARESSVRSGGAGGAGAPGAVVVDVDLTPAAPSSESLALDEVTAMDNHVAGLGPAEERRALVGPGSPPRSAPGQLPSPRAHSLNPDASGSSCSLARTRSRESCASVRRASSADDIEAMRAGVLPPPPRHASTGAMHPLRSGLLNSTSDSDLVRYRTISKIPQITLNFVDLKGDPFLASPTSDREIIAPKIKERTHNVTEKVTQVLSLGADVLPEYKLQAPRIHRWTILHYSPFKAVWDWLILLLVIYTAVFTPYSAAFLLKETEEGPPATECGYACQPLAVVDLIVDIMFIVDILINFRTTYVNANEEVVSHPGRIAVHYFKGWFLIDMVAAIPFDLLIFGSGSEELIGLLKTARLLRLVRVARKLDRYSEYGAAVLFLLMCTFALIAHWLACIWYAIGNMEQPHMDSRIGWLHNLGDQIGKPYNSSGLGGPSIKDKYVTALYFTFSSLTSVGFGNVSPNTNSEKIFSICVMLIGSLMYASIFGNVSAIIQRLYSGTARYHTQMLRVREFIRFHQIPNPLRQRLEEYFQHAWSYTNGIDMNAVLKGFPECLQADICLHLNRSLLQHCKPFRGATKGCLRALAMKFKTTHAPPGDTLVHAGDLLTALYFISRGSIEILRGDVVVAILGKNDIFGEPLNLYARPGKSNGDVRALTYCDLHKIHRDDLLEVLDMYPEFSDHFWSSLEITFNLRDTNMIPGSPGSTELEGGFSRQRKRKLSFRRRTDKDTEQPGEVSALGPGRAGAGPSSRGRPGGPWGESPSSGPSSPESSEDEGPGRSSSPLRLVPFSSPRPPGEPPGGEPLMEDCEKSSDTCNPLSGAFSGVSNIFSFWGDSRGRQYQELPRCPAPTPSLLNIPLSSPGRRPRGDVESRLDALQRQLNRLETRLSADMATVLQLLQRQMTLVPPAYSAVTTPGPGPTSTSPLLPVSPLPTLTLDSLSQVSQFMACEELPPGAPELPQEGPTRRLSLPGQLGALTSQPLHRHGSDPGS

| Compound | solubility at 40 min [1] [µM] | IC50 [2, 7] [nM] | IC50 [2, 8] [nM] | IC50 ([3]; (PL), read-out: hERG (nM) (PL)) | half-life at 1 μM [4] [min] | IC50 ([6]; read-out: FLIPR IC50) [µM] | further results |
| --- | --- | --- | --- | --- | --- | --- | --- |
| CC(C)c1ccccc1Oc1ccc(C2CCN(C(=O)c3ncccc3Cl)C2)c(CO)c1 (centres unmarked) [Compound 2-12, (3-chloropyridin-2-yl)(3-(2-(hydroxymethyl)-4-(2-isopropylphenoxy)phenyl)pyrrolidin-1-yl)methanone] | > 8 | 101 | 10 to 100 | 12600 | 7.55 |  |  |
| CC(C)c1ccccc1Oc1ccc(C2CCN(C(=O)c3ccc(F)cn3)C2)c(CO)c1 (centres unmarked) [Compound 2-16, (5-fluoropyridin-2-yl)(3-(2-(hydroxymethyl)-4-(2-isopropylphenoxy)phenyl)pyrrolidin-1-yl)methanone] | ~4.7 (≈ 2.04 µg/mL) | 29.7 | 10 to 100 | 9650 | 5.3 |  | IC50 ([2]; Phase 2 current, human TRPV3, read-out: hTRPV3 (nM) Phase 2): 25.7 nM; IC50 ([2]; Phase 2 current, inward, whole-cell patch clamp, read-out: hTRPV3 Patch P2 Inwd): 10 to 100 nM |
| CC(C)c1ccccc1Oc1ccc(C2CCN(C(=O)c3cccc(Cl)n3)C2)c(CO)c1 (centres unmarked) [Compound 2-20, (6-chloropyridin-2-yl)(3-(2-(hydroxymethyl)-4-(2-isopropylphenoxy)phenyl)pyrrolidin-1-yl)methanone] | ~1.6 (≈ 0.722 µg/mL) | 62 | 10 to 100 |  | 8.33 |  | IC50 [3]: ~5330 nM; IC50 ([3]; (M), read-out: hERG): 3910 nM |
| CCc1cncnc1Oc1ccc(C2CCN(C(=O)c3ncccc3Cl)C2)c(CO)c1 (centres unmarked) [Compound 2-22, (3-chloropyridin-2-yl)(3-(4-(5-ethylpyrimidin-4-yloxy)-2-(hydroxymethyl)phenyl)pyrrolidin-1-yl)methanone] | > 20.3 | > 3200 | > 1000 | > 32000 | 31.8 |  |  |
| CC(C)c1ccccc1Oc1ccc(C2CCN(C(=O)c3ncccc3Cl)C2)c(C(N)=O)c1 (centres unmarked) [Compound 2-26, 2-(1-(3-chloropicolinoyl)pyrrolidin-3-yl)-5-(2-isopropylphenoxy)benzamide] | > 19.2 | 217 | 100 to 1000 | 10400 | 19.7 |  |  |
| CCc1ccccc1-c1ccc(C2CCN(C(=O)c3ccc(F)cn3)C2)c(CO)c1 (centres unmarked) [Compound 2-28, (3-(2′-ethyl-3-(hydroxymethyl)biphenyl-4-yl)pyrrolidin-1-yl)(5-fluoropyridin-2-yl)methanone] | > 15 | 19.6 | 10 to 100 | 13700 | 18.4 |  |  |
| CC(C)c1ccccc1-c1ccc(C2CCN(C(=O)c3ccccn3)C2)c(CO)c1 (centres unmarked) [Compound 2-42] | > 19.7 | 22.7 | 10 to 100 | 18300 | 11.7 |  |  |
| CCc1ccccc1-c1ccc(C2CCN(C(=O)c3ccc(C(F)(F)F)cn3)C2)c(CO)c1 (centres unmarked) [Compound 2-47, (3-(2′-ethyl-3-(hydroxymethyl)biphenyl-4-yl)pyrrolidin-1-yl)(5-(trifluoromethyl)pyridin-2-yl)methanone] | ~5.6 (≈ 2.55 µg/mL) | 18.4 | 10 to 100 | 17200 | 28.1 |  |  |
| CCc1ccccc1-c1ccc(C2CCN(C(=O)c3cc(Cl)ccn3)C2)c(CO)c1 (centres unmarked) [Compound 2-48, (4-chloropyridin-2-yl)(3-(2′-ethyl-3-(hydroxymethyl)biphenyl-4-yl)pyrrolidin-1-yl) methanone] | > 8 | 69.3 | 10 to 100 | 13400 | 7.54 |  |  |
| CCc1c(C)cccc1-c1ccc(C2CCN(C(=O)c3ccc(F)cn3)C2)c(CO)c1 (centres unmarked) [Compound 2-64, (3-(2′-ethyl-3-(hydroxymethyl)-3′-methylbiphenyl-4-yl)pyrrolidin-1-yl)(5-fluoropyridin-2-yl)methanone] | > 15.7 | 18 | 10 to 100 | 10100 | 6.38 |  |  |
| O=C(c1ccc(F)cn1)N1CCC(c2ccc(-c3ccccc3)nc2CO)C1 (centres unmarked) [Compound 2-80] |  | 163 | 100 to 1000 | 5520 |  |  |  |
| CC(C)c1ccccc1Oc1ccc(C2CCN(Cc3ccccn3)C2)c(CO)c1 (centres unmarked) [Compound 2-87, (5-(2-isopropylphenoxy)-2-(1-(pyridin-2-ylmethyl)pyrrolidin-3-yl)phenyl)methanol] |  | 699 | 100 to 1000 | 260 | 2.46 |  |  |
| CC(C)c1ccccc1-c1ccc(C2CCN(Cc3ccc(F)cn3)C2)c(CO)c1 (centres unmarked) [Compound 2-95] |  | 582 | 100 to 1000 | < 1000 |  |  |  |
| COc1cncc(C(=O)N2CCC(c3ccc(-c4ccccc4C4CC4)cc3CO)C2)n1 (centres unmarked) [Compound 2-125] |  |  |  |  |  | 1.79 | IC50 [5]: 0.0996 µM |
| COc1ncc(C(=O)N2CCC(c3ccc(-c4ccccc4C4CC4)cc3CO)C2)nc1C (centres unmarked) [Compound 2-126] |  |  |  |  |  | 1.18 | IC50 [5]: 0.084 µM |
| O=C(c1ncon1)N1CCC(c2ccc(-c3ccccc3C3CC3)cc2CO)C1 (centres unmarked) [Compound 2-127] |  |  |  |  |  | 1.9 | IC50 [5]: 0.13 µM |
| Cc1nc(C(=O)N2CCC(c3ccc(-c4ccccc4C4CC4)cc3CO)C2)no1 (centres unmarked) [Compound 2-128] |  |  |  |  |  | 1.85 | IC50 [5]: 0.479 µM |
| Cc1nc(C(=O)N2CCC(c3ccc(-c4ccccc4C4CC4)cc3CO)C2)ccc1O (centres unmarked) [Compound 2-143] | 0.0183 (≈ 0.00784 µg/mL) |  |  |  |  |  | IC50 [5]: 0.0103 µM; IC50 ([6]; FLIPR IC50 (uM)): 0.86 µM |
| O=C(c1nccnc1O)N1CCC(c2ccc(-c3ccccc3C3CC3)cc2CO)C1 (centres unmarked) [Compound 2.150] |  |  |  |  |  | > 10 |  |
| COc1cncc(C(=O)N2CCC(c3ccc(-c4ccccc4C4CC4)cc3CO)C2)n1 (centres unmarked) [Compound 2.151] |  |  |  |  |  | 0.78 |  |
| O=C(c1cccc(CO)n1)N1CCC(c2ccc(-c3ccccc3C3CC3)cc2CO)C1 (centres unmarked) [Compound 2.152] |  |  |  |  |  | 4.56 |  |
| O=C(c1cc(CO)ccn1)N1CCC(c2ccc(-c3ccccc3C3CC3)cc2CO)C1 (centres unmarked) [Compound 2.154] |  |  |  |  |  | 4.21 |  |
| COCc1ccnc(C(=O)N2CCC(c3ccc(-c4ccccc4C4CC4)cc3CO)C2)c1 (centres unmarked) [Compound 2.155] |  |  |  |  |  | 9.25 |  |
| COc1cnc(C(=O)N2CCC(c3ccc(-c4ccccc4C4CC4)cc3CO)C2)nc1 (centres unmarked) [Compound 2.158] |  |  |  |  |  | 6.12 |  |

From US12435061B2 (priority 2020, dated 2025)
